Assay results: ChEMBL document CHEMBL3588825, “Identification of Oxaphenalenone Ketals from the Ascomycete Fungus Neonectria sp” (J Nat Prod, 2015)
Calls of active or inactive are those of the source.

Key:
Format in all cases: functional, cell-based
[1] = system: HCT-116; experiment: Cytotoxicity against human HCT116 cells at 50 uM after 90 mins by MTS assay
[2] = system: SW480; experiment: Cytotoxicity against human SW480 cells at 50 uM after 90 mins by MTS assay
[3] = system: T-24; experiment: Cytotoxicity against human T24 cells at 50 uM after 90 mins by MTS assay
[4] = system: A549; experiment: Cytotoxicity against human A549 cells at 50 uM after 90 mins by MTS assay
[5] = system: MCF7; experiment: Cytotoxicity against human MCF7 cells at 50 uM after 90 mins by MTS assay
[6] = system: HeLa; experiment: Cytotoxicity against human HeLa cells at 50 uM after 90 mins by MTS assay

Measured: Activity

COc1cc2c3c4c(c(O)cc(C)c14)C(=O)O[C@@H]3[C@@H]1C[C@@H](C)O[C@]1(C[C@H]1CCC(=O)O1)O2
inactive: all assays above
